Results on nine molecules are retold here after paper PMC3896336, “Discovery of a Novel Target for the Dysglycemic Chromogranin A Fragment Pancreastatin: Interaction with the Chaperone GRP78 to Influence Metabolism” (PLoS ONE, 2014).

One experiment concerns db/db mice. More on the design: method as in PMID 16931765. Conditions: ref [38]; cited from earlier work.
The test system of experiment [1] is GRP78 protein expression, HepG2 hepatocytes. Description: GRP78 protein expression by anti-GRP78 immunoblot in hepatocytes. Conditions: UPR activation by tunicamycin 5 µg/mL or thapsigargin 0.3 µM; Fig. 6C. Type of experiment: cell-based, human. Here is the method:
(§1) Figure 6 Role of the gluconeogenic/glycogenolytic enzyme G6Pase: Response to PST, GRP78, and inhibition of GRP78's ATPase enzymatic activity. (A) G6Pase expression, PST, and GRP78. Human HepG2 hepatocytes were transfected with G6P-ase→luciferase, along with pCMV-GRP78 or an empty vector (pCMV promoter without insert). 5 hrs after transfection, cells were treated with PST (100 nM) itself (versus mock), or by UPR activation (tunicamycin, 5 µg/mL; or thapsigargin, 0.3 µM). Cells were harvested at 18–20 hrs to measure luciferase activity and protein. (B) G6Pase expression during ATPase enzymatic activity inhibition of GRP78. Human HepG2 hepatocytes were transfected as in (A), and 5 hrs later were treated with the GRP78 ATPase inhibitors VER-155008 (1 µM), ADP (10 µM), or PST (100 nM). Cells were harvested at 18–20 hrs to measure luciferase activity and protein. (C) GRP78 expression: Visualization by immunoblot. Changes in GRP78 expression are shown by anti-GRP78 immunoblot (control: anti-actin), during either UPR activation (by thapsigargin 0.3 µM or tunicamycin 5 µg/mL), or exogenous over-expression (transfection of pCMV-GRP78).

The subject of a further experiment is GRP78 (HSPA5, BIP). Description: Ligand affinity isolation of PST binding protein from mouse liver membranes (biotinylated peptide as bait, streptavidin agarose, SDS-PAGE, LC-MS/MS). Conditions: control ligand affinity experiment, immobilized biotinylated catestatin (human CHGA352–372), liver homogenate; results not shown.
The subject of experiment [2] is human G6P-ase promoter-luciferase reporter, HepG2 hepatocytes. Description: G6Pase promoter-luciferase reporter activity in HepG2 hepatocytes. Type of experiment: cell-based. Conditions: for effect on reduction of G6Pase promoter activity by GRP78 over-expression: PST 100 nM, HepG2 with pCMV-GRP78, Fig. 6B; for effect on reduction of G6Pase promoter activity by GRP78 over-expression / basal G6Pase-luciferase promoter activity with GRP78 ATPase inhibitor: VER-155008 1 µM or ADP 10 µM; for basal G6Pase-luciferase promoter activity with GRP78 ATPase inhibitor: HepG2, Fig. 6B. Here is the method: The human G6P-ase promoter-luciferase reporter plasmid has been described. The GRP78 (BIP) promoter-luciferase reporter was a gift from Bruce M. Spiegelman (Harvard Medical School). The pCMV promoter-driven human GRP78 (HSPA5) expression plasmid was from Origene <www.origene.com/>. pSV-Beta-Gal (a transfection efficiency control plasmid, in which the SV40 early promoter drives expression of beta-galactosidase) was obtained from Promega <www.promega.com>.
Cells were plated on 24 well tissue culture plates the day before transfection. 0.5 to 1.0 µg of total DNA per well was used for transfection with Transfectin (BioRad). In some experiments, pSV-Beta-Gal (Promega; in which the SV40 early promoter drives expression of beta-galactosidase) was co-transfected as a transfection efficiency control. After 5 hrs supernatants were removed and fresh media containing different compounds as mentioned in the respective figures were added. 18 hrs after transfection, supernatants were removed and cells were lysed in passive lysis buffer (Promega) and the luciferase and beta-galactosidase activity were measured. Luciferase activity was normalized by beta-galactosidase as well as cellular protein, determined by dye-binding (coomassie G-250; BioRad).
Figure 5 PST acts on both uptake and mobilization steps for glucose: Effects on cellular glucose metabolism and insulin action. (A) PST and glucose uptake. Mouse 3T3-L1 cells were induced to differentiate into adipocytes, and 7–10 days post-differentiation glucose uptake was measured by incubating cells with 2-deoxy-[^3H]-glucose in the presence or absence of PST (100 nM), insulin (100 nM), or insulin plus PST (100 nM each). (B) Glucose mobilization and PST: Effects on expression of the gluconeogenic/glycogenolytic enzyme G6Pase (glucose-6-phosphatase). Human HepG2 hepatocytes were transfected with a glucose-6-phosphatase (G6P-ase)→luciferase reporter plasmid along with a beta gal reporter plasmid as mentioned in the experimental procedures, and 5 hrs after transfection cells were treated with PST (100 nM), insulin (100 nM), or both insulin and PST (100 nM each). Cells were harvested at 18–20 hrs after transfection to measure luciferase activity, beta gal activity and protein.
as §1

The subject of another experiment is cellular glucose uptake. Conditions: naturally occurring human variant; ref [14]; cited from earlier work. The source says: The activity of PST as a regulatory gastroenteropancreatic peptide has been established in the light of a variety of biological effects in a number of tissues [6]–[9], including its role in modulation of energy metabolism, with a general counter-regulatory effect to insulin. […] Metabolic effects of PST have been c ...

Entries after “also recorded” stand apart in the source; their conditions may differ. Where no end group is shown, it is not given here.

Description for GRP78 (HSPA5, BIP): Freshly obtained normal mouse liver was homogenized in cold, freshly prepared buffer (10 mM Hepes, pH 7.4, 0.1 mM EDTA) with a cocktail of protease inhibitors (Protease inhibitor cocktail set III, Calbiochem at 1∶100: PMSF 5 mM, benzamidine hydrochloride 50 mg/mL, TLCK [N-Tosyl-Lys Chloromethyl Ketone] hydrochloride 0.1 mM), and centrifuged at 50,000 g for 30 min to pellet crude membranes. The membrane preparation was washed once with the same buffer and then solubilized with 1% v/v Triton X-100 in 25 mM Hepes pH 7.4, 100 mM NaCl, 2 mM MgCl2, 1 mM KCl and protease inhibitor cocktail as mentioned above, for 1 hr at 4°C, then centrifuged at 100,000 g for 1 hr, and the supernatant was saved.
The streptavidin resin was washed extensively with the same buffer and then incubated with solubilized liver membranes for 18 hr at 4°C. […] Fractions eluted were concentrated by TCA precipitation and analyzed on 8–16% SDS-PAGE gradient slab gels, stained with coomassie blue G-250 (SimplyBlue Safestain; Invitrogen).
Gel slices were cut to 1×1 mm cubes and destained 3 times by first washing with 100 µl of 100 mM ammonium bicarbonate for 15 min, followed by addition of 100 µl acetonitrile (ACN) for 15 min. […] The combined extractions were analyzed directly by reverse-phase liquid chromatography (LC) in combination with tandem mass spectroscopy (MS/MS) using electrospray ionization [29]. […]

Turning to `C[C@H](CCC(=O)NCCS(=O)(=O)O)[C@H]1CC[C@H]2[C@@H]3[C@@H](O)C[C@@H]4C[C@H](O)CC[C@]4(C)[C@H]3CC[C@]12C` [TUDCA, tauroursodeoxycholic acid], in the experiment with db/db mice, the “ER stress, glucose homeostasis and insulin sensitivity” value was “reduced ER stress, with restored glucose homeostasis and improved insulin sensitivity”. Consider `C/C=C(/C)C(=O)O[C@H]1C(C)=C2[C@H]([C@@H]1OC(=O)CCCCCCC)[C@@](C)(OC(C)=O)C[C@H](OC(=O)CCC)[C@@]1(O)[C@H]2OC(=O)[C@@]1(C)O` [thapsigargin], for which the “increase in GRP78 protein expression as compared to untreated cells” value in experiment [1] was roughly 15 fold. For the molecule `O=C(O)CCCc1ccccc1` [4-phenylbutyric acid (PBA), 4-phenylbutyric acid], the “ER stress, glucose homeostasis and insulin sensitivity” value with db/db mice was “reduced ER stress, with restored glucose homeostasis and improved insulin sensitivity”.

As for tunicamycin, the “increase in GRP78 protein expression as compared to untreated cells” value in experiment [1] was roughly 15 fold. Regarding catestatin, in the experiment with GRP78 (HSPA5, BIP), the “pull down of GRP78” value is listed as “did not pull down the GRP78 protein”. In the case of `N#Cc1ccc(COC[C@H]2O[C@@H](n3c(NCc4ccc(Cl)c(Cl)c4)nc4c(N)ncnc43)[C@H](O)[C@@H]2O)cc1` [VER-155008], in experiment [2], the “effect on reduction of G6Pase promoter activity by GRP78 over-expression” value is reported as “could not fully overcome the effect of GRP78 over-expression; also recorded: could still be partially reversed” and the “basal G6Pase-luciferase promoter activity with GRP78 ATPase inhibitor” value was “basal G6Pase-luciferase promoter activity rose (Fig. 6B) to a level comparable to PST activation”. Regarding insulin, the “suppression of PST-induced activation of the G6Pase promoter” value in experiment [2] (insulin 100 nM plus PST 100 nM, HepG2, Fig. 5B) was roughly 40%. Take `Nc1ncnc2c1ncn2[C@@H]1O[C@H](COP(=O)(O)OP(=O)(O)O)[C@@H](O)[C@H]1O` [ADP, adenosine 5′-diphosphate]: in experiment [2], the “effect on reduction of G6Pase promoter activity by GRP78 over-expression” value is on record as “could not fully overcome the effect of GRP78 over-expression; also recorded: could still be partially reversed” and the “basal G6Pase-luciferase promoter activity with GRP78 ATPase inhibitor” value was “basal G6Pase-luciferase promoter activity rose (Fig. 6B) to a level comparable to PST activation”. Consider “Gly297Ser: naturally occurring human PST variant, Gly297Ser in the functionally important carboxyl terminus of the peptide (SEALAVDGAGKPGAEEAQDPEGKGEQEHSQQKEEEEEMAVVPQSLFRG; ends and bridges not checked; UniProt P10645 272-319, looked up, variant G297S)”, for which the “potency to inhibit cellular glucose uptake” value with cellular glucose uptake is recorded as “substantially increasing its potency to inhibit cellular glucose uptake”.
